Data published in US20140005163A1 (NOVARTIS AG, priority 2010, published 2014).
pIC50: −log10 of the molar value.

Columns and labels:
PI3K alpha = target: T1, PI3K alpha (Homo sapiens, UniProt P42336); assay: PI3K alpha kinase assay (Kinase-Glo luminescence); assay type: biochemical
T1 construct: p85(iSH2) fusion partner (see partner chain) (N); His tag (C); made in house; host or cells: baculovirus; Tn5 (Trichoplusia ni) or TiniPro insect cells
Outline: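 Enzyme 10 nM PI3Kα EMV B1075; ATP 1 μM; PI 10 μg/mL; Tris-HCl pH 7.5 10 mM, MgCl2 3 mM, NaCl 50 mM, CHAPS 0.05%, DTT 1 mM; 60 min RT; Kinase-Glo luminescence; 4-parameter IC50 fit, 8 concentrations, single points.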

PI3K beta = target: T2, PI3K beta (Homo sapiens, UniProt P42338); assay: PI3K beta kinase assay (Kinase-Glo luminescence); assay type: biochemical
T2 construct: for the full-length p110-b subunit are generated and fused by overlapping PCR; p85(iSH2) fusion partner (see partner chain) (N); His tag (C); made in house; host or cells: baculovirus; Tn5 (Trichoplusia ni) or TiniPro insect cells
Outline: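 Enzyme: BV949 p85(iSH2)-Gly linker-p110β FL-His, 25 nM. Substrate: PI 10 μg/mL. ATP: 1 μM, added to start. Buffer: Tris pH 7.5 10 mM, MgCl2 3 mM, NaCl 50 mM, CHAPS 0.05%, DTT 1 mM. RT, 60 min. Readout: Kinase-Glo. IC50 by 4-parameter fit.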

mTOR = target: T3, mTOR (Homo sapiens, UniProt P42345); assay: Biochemical assay for m-TOR by TR-FRET; details: 8 μM ATP, 400 nM GFP-4EBP1, 0.5 nM mTOR
T3 construct: purchased Invitrogen Corporation (Carlsbad/CA, USA) PV4753
Outline: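 Steps: ATP (8 μM final) plus GFP-4EBP1 (400 nM final) combined with mTOR (0.5 nM final), incubated at rt; buffer HEPES pH 7.5 with 10 mM MnCl2, NaCl, EGTA, DTT. Then stopped with EDTA/Tb3+-anti-p4EBP1 pT46 Ab (0.5 nM). Plates read after 15 min.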

T2 sequence (P42338 with tags, fused parts or gaps limits assumed): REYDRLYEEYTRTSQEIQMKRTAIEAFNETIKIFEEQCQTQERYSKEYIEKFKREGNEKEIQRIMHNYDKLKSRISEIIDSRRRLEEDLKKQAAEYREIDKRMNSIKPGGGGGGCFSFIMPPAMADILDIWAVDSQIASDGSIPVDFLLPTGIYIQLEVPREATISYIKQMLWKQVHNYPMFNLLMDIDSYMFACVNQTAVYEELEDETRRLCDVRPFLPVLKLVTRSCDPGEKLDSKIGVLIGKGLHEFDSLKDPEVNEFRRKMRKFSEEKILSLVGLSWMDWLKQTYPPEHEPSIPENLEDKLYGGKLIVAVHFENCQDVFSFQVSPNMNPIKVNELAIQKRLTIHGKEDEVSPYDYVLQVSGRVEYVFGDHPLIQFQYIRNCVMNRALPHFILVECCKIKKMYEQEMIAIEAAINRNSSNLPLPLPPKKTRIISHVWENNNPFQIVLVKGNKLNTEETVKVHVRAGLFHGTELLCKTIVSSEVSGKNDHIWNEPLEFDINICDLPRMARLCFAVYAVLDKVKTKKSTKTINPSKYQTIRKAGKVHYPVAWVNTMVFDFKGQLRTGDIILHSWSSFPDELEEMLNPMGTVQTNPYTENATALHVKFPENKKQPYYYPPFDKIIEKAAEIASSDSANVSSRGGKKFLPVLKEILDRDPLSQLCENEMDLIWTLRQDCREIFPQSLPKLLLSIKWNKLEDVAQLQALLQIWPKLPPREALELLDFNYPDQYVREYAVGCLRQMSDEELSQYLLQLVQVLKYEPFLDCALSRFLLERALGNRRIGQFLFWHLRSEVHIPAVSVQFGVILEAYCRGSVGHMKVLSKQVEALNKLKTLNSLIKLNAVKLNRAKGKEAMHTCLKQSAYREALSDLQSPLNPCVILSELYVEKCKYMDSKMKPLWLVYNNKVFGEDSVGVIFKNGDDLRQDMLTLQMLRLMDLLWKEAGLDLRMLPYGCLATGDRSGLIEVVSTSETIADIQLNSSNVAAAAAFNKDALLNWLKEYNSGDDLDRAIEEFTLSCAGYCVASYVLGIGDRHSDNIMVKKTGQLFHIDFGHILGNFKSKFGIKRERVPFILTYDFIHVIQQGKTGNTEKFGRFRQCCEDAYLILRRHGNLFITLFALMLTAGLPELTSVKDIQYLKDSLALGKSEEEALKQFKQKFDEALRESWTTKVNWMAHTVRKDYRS
T1 sequence (P42336 with tags, fused parts or gaps limits assumed): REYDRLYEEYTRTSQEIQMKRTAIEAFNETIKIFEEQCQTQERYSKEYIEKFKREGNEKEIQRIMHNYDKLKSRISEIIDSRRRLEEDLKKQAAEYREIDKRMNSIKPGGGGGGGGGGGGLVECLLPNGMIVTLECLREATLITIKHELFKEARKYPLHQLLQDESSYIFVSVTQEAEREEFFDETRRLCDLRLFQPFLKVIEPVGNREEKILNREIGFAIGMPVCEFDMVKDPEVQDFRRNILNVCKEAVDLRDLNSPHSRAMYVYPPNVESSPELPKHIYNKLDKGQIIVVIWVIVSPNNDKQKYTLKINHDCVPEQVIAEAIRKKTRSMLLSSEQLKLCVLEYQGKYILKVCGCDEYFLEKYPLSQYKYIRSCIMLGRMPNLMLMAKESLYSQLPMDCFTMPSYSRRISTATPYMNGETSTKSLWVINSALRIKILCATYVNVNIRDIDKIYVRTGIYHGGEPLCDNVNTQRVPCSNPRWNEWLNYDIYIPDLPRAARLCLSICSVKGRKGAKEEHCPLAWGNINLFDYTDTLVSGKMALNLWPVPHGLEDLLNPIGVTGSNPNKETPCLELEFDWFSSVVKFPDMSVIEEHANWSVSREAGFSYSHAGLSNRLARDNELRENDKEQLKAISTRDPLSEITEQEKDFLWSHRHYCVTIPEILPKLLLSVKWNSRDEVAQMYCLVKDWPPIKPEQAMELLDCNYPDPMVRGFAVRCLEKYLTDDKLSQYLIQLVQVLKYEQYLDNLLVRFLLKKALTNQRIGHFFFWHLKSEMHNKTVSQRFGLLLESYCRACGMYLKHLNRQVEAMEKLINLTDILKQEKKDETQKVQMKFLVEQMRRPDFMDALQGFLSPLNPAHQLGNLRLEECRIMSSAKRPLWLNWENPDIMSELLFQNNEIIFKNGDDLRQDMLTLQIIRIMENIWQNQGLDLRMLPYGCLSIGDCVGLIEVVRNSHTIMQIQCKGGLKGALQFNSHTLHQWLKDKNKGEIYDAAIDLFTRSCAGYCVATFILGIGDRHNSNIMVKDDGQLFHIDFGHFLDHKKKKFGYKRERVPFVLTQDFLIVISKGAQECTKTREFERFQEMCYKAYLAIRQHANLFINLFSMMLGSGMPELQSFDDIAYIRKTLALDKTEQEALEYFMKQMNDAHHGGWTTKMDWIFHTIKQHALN
T3 sequence (P42345 1360-2549 limits assumed): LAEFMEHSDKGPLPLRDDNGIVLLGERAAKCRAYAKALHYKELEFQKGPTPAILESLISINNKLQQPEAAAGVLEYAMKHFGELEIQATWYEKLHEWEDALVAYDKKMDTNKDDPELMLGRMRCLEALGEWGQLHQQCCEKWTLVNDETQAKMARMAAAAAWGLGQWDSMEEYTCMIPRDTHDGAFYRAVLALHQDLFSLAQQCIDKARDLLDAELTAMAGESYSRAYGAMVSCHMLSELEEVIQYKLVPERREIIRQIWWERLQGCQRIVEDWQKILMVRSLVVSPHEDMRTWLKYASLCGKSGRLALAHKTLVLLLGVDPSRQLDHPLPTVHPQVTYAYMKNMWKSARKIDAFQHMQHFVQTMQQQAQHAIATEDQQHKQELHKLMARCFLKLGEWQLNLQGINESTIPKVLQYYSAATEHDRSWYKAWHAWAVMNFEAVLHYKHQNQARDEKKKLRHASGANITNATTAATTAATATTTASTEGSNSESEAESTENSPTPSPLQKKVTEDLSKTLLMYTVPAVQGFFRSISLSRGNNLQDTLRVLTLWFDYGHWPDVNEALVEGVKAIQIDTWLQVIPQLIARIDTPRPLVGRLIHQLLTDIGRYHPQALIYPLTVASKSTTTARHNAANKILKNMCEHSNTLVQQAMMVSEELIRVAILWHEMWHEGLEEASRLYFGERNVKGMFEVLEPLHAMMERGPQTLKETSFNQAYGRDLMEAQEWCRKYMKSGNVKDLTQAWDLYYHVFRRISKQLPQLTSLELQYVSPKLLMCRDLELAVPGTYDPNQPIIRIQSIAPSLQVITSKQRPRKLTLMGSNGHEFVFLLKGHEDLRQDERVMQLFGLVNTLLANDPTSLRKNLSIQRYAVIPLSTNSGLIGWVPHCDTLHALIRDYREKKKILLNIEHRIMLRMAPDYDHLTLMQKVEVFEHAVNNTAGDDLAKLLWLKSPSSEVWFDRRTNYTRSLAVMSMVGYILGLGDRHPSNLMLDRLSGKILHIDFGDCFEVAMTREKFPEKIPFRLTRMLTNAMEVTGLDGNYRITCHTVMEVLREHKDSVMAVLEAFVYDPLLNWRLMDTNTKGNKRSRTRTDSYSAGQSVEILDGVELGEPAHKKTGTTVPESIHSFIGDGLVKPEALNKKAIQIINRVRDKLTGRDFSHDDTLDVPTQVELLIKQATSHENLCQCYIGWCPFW

| SMILES | pIC50 (PI3K alpha) | pIC50 (PI3K beta) | pIC50 (mTOR) |
| --- | --- | --- | --- |
| CCOc1cccc(-c2ccc3ncc4c(c3c2)n(-c2cn(C)nc2C)c(=O)n4C)c1 [Example 57, 1-(1,3-Dimethyl-1H-pyrazol-4-yl)-8-(3-ethoxy-phenyl)-3-methyl-1,3-dihydro-imidazo[4,5-c]quinolin-2-one] | 7.42 | 6.67 | 6.49 |
| CCNc1ncc(-c2ccc3ncc4c(c3c2)n(-c2c(C)nn(C)c2C)c(=O)n4C)cc1C(F)(F)F [Example 145.1, 8-(6-Ethylamino-5-trifluoromethyl-pyridin-3-yl)-3-methyl-1-(1,3,5-trimethyl-1H-pyrazol-4-yl)-1,3-dihydro-imidazo[4,5-c]quinolin-2-one] | 7.38 | 6.79 | 6.76 |
| COc1cc(-c2ccc3ncc4c(c3c2)n(-c2cn(C(C)C)nc2C)c(=O)n4C)cnc1CO [Example 194.1, 8-(6-Hydroxymethyl-5-methoxy-pyridin-3-yl)-1-(1-isopropyl-3-methyl-1H-pyrazol-4-yl)-3-methyl-1,3-dihydro-imidazo[4,5-c]quinolin-2-one] | 7.47 | 6.49 | 7.00 |
| Cc1nn(C)c(C)c1-n1c(=O)n(C)c2cnc3ccc(-c4cnc(N)c(C(F)(F)F)c4)cc3c21 [Example 25.3, 8-(6-Amino-5-trifluoromethyl-pyridin-3-yl)-3-methyl-1-(1,3,5-trimethyl-1H-pyrazol-4-yl)-1,3-dihydro-imidazo[4,5-c]quinolin-2-one] | 7.23 | 7.32 | 6.94 |
| Cc1nn(C)cc1-n1c(=O)n(C)c2cnc3ccc(-c4cccc(N(C)S(C)(=O)=O)c4)cc3c21 [Example 117, N-{3-[1-(1,3-Dimethyl-1H-pyrazol-4-yl)-3-methyl-2-oxo-2,3-dihydro-1H-imidazo[4,5-c]quinolin-8-yl]-phenyl}-N-methyl-methanesulfonamide] | 7.24 | 6.04 | 6.33 |
| CNc1cc(-c2ccc3ncc4c(c3c2)n(-c2c(C)nn(C)c2C)c(=O)n4C)cnc1CO [Example 158.4, 8-(6-Hydroxymethyl-5-methylamino-pyridin-3-yl)-3-methyl-1-(1,3,5-trimethyl-1H-pyrazol-4-yl)-1,3-dihydro-imidazo[4,5-c]quinolin-2-one] | 7.14 | 6.95 | 7.15 |

The next molecules have a higher pIC50 (PI3K alpha) than those just listed; values first:

| pIC50 (PI3K alpha) | pIC50 (PI3K beta) | pIC50 (mTOR) | SMILES |
| --- | --- | --- | --- |
| 7.54 | 7.11 | 7.35 | CCOCc1ncc(-c2ccc3ncc4c(c3c2)n(-c2cn(C)nc2Cl)c(=O)n4C)cc1OC [Example 196.1, 1-(3-Chloro-1-methyl-1H-pyrazol-4-yl)-8-(6-ethoxymethyl-5-methoxy-pyridin-3-yl)-3-methyl-1,3-dihydro-imidazo[4,5-c]quinolin-2-one] |
| 7.60 | 6.94 | 7.96 | CCNc1ncc(-c2ccc3ncc4c(c3c2)n(-c2cn(C)nc2C)c(=O)n4C)cc1Cl [Example 147, 8-(5-Chloro-6-ethylamino-pyridin-3-yl)-1-(1,3-dimethyl-1H-pyrazol-4-yl)-3-methyl-1,3-dihydro-imidazo[4,5-c]quinolin-2-one] |
| 7.80 | 7.07 | 7.32 | Cc1nn(C)cc1-n1c(=O)n(C)c2cnc3ccc(-c4cccnc4)cc3c21 [Example 10.2, 1-(1,3-Dimethyl-1H-pyrazol-4-yl)-3-methyl-8-pyridin-3-yl-1,3-dihydro-imidazo[4,5-c]quinolin-2-one] |
| 7.92 | 7.89 | 8.00 | Cc1nn(C)cc1-n1c(=O)n(C)c2cnc3ccc(-c4cncc(OCCF)c4)cc3c21 [Example 181, 1-(1,3-Dimethyl-1H-pyrazol-4-yl)-8-[5-(2-fluoro-ethoxy)-pyridin-3-yl]-3-methyl-1,3-dihydro-imidazo[4,5-c]quinolin-2-one] |
| 8.05 | 7.68 | 7.51 | COCCOc1cc(-c2ccc3ncc4c(c3c2)n(-c2cn(C)nc2C)c(=O)n4C)cnc1C [Example 86.2, 1-(1,3-Dimethyl-1H-pyrazol-4-yl)-8-[5-(2-methoxy-ethoxy)-6-methyl-pyridin-3-yl]-3-methyl-1,3-dihydro-imidazo[4,5-c]quinolin-2-one] |
| 8.22 | 7.74 | 7.89 | COc1cc(-c2ccc3ncc4c(c3c2)n(-c2cn(CCO)nc2C)c(=O)n4C)cnc1C [Example 211.1, 1-[1-(2-Hydroxy-ethyl)-3-methyl-1H-pyrazol-4-yl]-8-(5-methoxy-6-methyl-pyridin-3-yl)-3-methyl-1,3-dihydro-imidazo[4,5-c]quinolin-2-one] |
| 8.52 | 8.15 | > 8.52 | Cc1nn(C)cc1-n1c(=O)n(C)c2cnc3ccc(-c4cnc(Cl)c(NS(C)(=O)=O)c4)cc3c21 [Example 223, N-{2-Chloro-5-[1-(1,3-dimethyl-1H-pyrazol-4-yl)-3-methyl-2-oxo-2,3-dihydro-1H-imidazo[4,5-c]quinolin-8-yl]-pyridin-3-yl}-methanesulfonamide] |
